Assay results as given in PubChem BioAssay AID179 (DTP/NCI, 2004).
The source made the active and inactive calls.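 The calls were made as follows: active = compounds giving half or more protection of infected cells from virus-caused growth loss, again on retest; inactive = the rest.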 Where a SMILES comes first, the peptide text is derived from it.

Test system: CEM cells HIV-1 protection, formazan growth assay
Experiment: NCI AIDS Antiviral Assay
Conditions: for IC50: measured here: growth of uninfected CEM cells
Method: The ability of compounds to protect human CEM cells from HIV-1 infection is measured as a screen for new compounds capable of inhibiting the HIV virus. Five concentrations of drug were tested on uninfected and infected cells and cell growth was measured using a soluble formazan assay. […] Compounds that provided at least 50% protection were retested. Compounds that provided at least 50% protection on retest were listed as moderately active. Compounds that reproducibly provided 100% protection were listed as confirmed active. […] Note that the inability to provide protection could be due to toxicity.

Structure (SMILES) | EC50 [µM] | IC50 [µM] | outcome
N/N=C1\C(=O)N(c2ccc(Cl)c(Cl)c2)C(=O)C1C(=O)Nc1ccc(Cl)c(Cl)c1 (stereo unspecified) | > 1.2 | > 1.2 | –
Cn1c(=O)c2c(ncn2CC(=O)NC23CC4CC(CC(C4)C2)C3)n(C)c1=O | – | – | inactive
CC(C)(O)/C=C\P(C)(=O)c1ccccc1 (stereo unspecified) | > 200 | > 200 | –
Nc1nc(N)c(N=Nc2ccc(S(=O)(=O)NC(=O)c3ccccc3)cc2)c(=O)[nH]1 | > 200 | > 200 | –
CN(C(=O)C12C3C4C1C1C2C3C41I)C(C)(C)C (stereo unspecified) | > 251 | > 251 | –
O=C1/C(=C\c2cccc(Oc3ccccc3)c2)S(=O)(=O)C(c2ccccc2)N1c1ccc(Cl)cc1 (stereo unspecified) | > 20 | – | –
Cc1ccc(N=NC2S/C(=C(\C#N)c3nc4ccccc4[nH]3)N(c3ccccc3)C2=O)cc1 (stereo unspecified) | > 2.24 | > 2.24 | –
Cc1cccc2c1CC1(C2)Cc2c(C)cccc2C1=O (stereo unspecified) | > 200 | 37.2 | –
COc1cc(C(Cc2ccnc3ccccc23)Cc2ccnc3ccccc23)ccc1N(C)C | > 16.2 | 3.16 | –
CCc1nnc2sc3c(Cl)c4nn5c(CC)nnc5sc4c(Cl)c3nn12 | > 200 | 11.7 | –
CC1(C)CNC(=O)C2(CCCO2)CNC(C)(C)CNC(=O)C2(CCCO2)CN1 (stereo unspecified) | > 126 | > 126 | –
Cc1ccc(-n2cc(-c3ccc(Cl)cc3)c3c(NNC(=S)NCc4ccccc4)ncnc32)cc1 | > 200 | 7.59 | –
CCCCCCCCCCCCCC(=O)O[C@H]1CC[C@H](NC(=O)[C@H](OC)[C@H](O)[C@@H](O)[C@H](O)/C=C/C(C)C)C(=O)NC1 | > 2 | 0.00661 | –
NC12CCC(CC1=O)C2 (stereo unspecified) | > 200 | > 200 | –
COc1ccc(C2CC(=O)c3c(O)cc(O)cc3O2)cc1O (stereo unspecified) | > 832 | 74.1 | –
CC(=O)c1c(C)n(C)c2c1nnc1ccccc12 | > 41.7 | 30.2 | –
Cc1cc(N=Nc2c(C)ccc3ncccc23)ccc1N | > 200 | 0.603 | –
CC(C)N1CCOC(c2ccc(O)c(O)c2)C1 (stereo unspecified) | > 200 | 95.5 | –
COC[C@@H](N=CN1CCc2cc(OC)c(OC)cc2[C@@H]1C)C(C)(C)C | > 513 | 490 | –
O=C(O)CCCn1nnc2c(=O)[nH][nH]c(=O)c21 | > 200 | > 200 | –
CCOP(=O)(OCC)/C(C#N)=C/c1ccc(C(F)(F)F)cc1 | > 107 | 57.5 | –

Structure (SMILES) | EC50 [µM] | IC50 [µM] | outcome
Cc1ccc(Oc2ccc(C(=O)c3cccc(C(=O)c4ccc(Oc5ccc(C)cc5)cc4)n3)cc2)cc1 | > 3.8 | > 3.8 | –
O/N=C(\CC(O)(C(F)(F)F)C(F)(F)F)c1cccs1 | > 200 | > 100 | –
CC(C)C1CSC2N1C(=O)C2(OCc1ccccc1)C1CC1 (stereo unspecified) | > 200 | 81.3 | –
CCN=C(NC(=O)c1ccccc1F)SCSC(=NCC)NC(=O)c1ccccc1F | > 200 | 55 | –
CC#CC(OCC)(OCC)OCC | > 1350 | > 1350 | –
CC(=O)c1c(O)cc(O)cc1-c1cc(=O)c2c(O)ccc(C(C)=O)c2o1 | > 200 | 170 | –
NC(=O)CCCC(NCc1c2ccccc2nc2ccccc12)C(=O)O (stereo unspecified) | – | – | inactive
CCC(C)C(NC(=O)C(CC(C)C)NC(=O)CNC(=O)C(CC(N)=O)NC(=O)C(CC(=O)O)NC(=O)C(N)CC(C)C)C(=O)NC(CC(C)C)C(=O)NC(C)C(=O)NC(Cc1ccc(O)cc1)C(=O)O (stereo unspecified) (H-LDNGLILAY-OH; configuration not given here) | > 50.1 | > 50.1 | –
CCn1c(=S)[nH]c2sc3c(c2c1=O)CCCCC3 | > 107 | 21.9 | –
N#CC1(Cc2ccccc2Cl)c2ccccc2C=CN1C(=O)c1ccccc1 (stereo unspecified) | – | – | inactive
CC1=CC2C(O)(CC(CO)=CC3C4C(C)(C)C4(O)C(O)C(C)C32O)C1=O (stereo unspecified) | – | – | inactive
CC(=O)CCC(=O)C(=[N+]=[N-])S(=O)(=O)c1ccccc1 | > 891 | 151 | –
C/C=C/C(C1=C(O)c2ccccc2C(=O)C1=O)C1=C(O)c2ccccc2C(=O)C1=O | > 200 | 83.2 | –
Cc1oc2c(C)c3oc(=O)cc(C)c3cc2c1CN | > 50.1 | 7.08 | –
CC(=O)CC1=C(OC(C)C)C2(OCCO2)C1O (stereo unspecified) | > 200 | > 200 | –
Cc1[nH]c2nccn2c(=O)c1CCO | > 200 | > 200 | –
COc1ccc(C(c2ccc(C(C)C)cc(=O)c2O)c2ccc3cccnc3c2O)cc1 (stereo unspecified) | – | – | inactive
CCN(CC)C(=O)N1CCN(C=S)CC1 | > 794 | > 794 | –
COC1O[C@H]2CCN(C(=O)OCc3ccccc3)[C@H]2[C@H]1OCc1ccccc1 (stereo partly specified) | > 35.5 | > 35.5 | –
COc1ccc(C2=C(N)c3c(Cl)cccc3C2=O)cc1 | > 200 | 155 | –
